From ChEMBL document CHEMBL1201862, “PubChem BioAssay data set” (2004)
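Where inhibition never reached the appropriate level, the endpoint shown equals the highest concentration tested. Otherwise, values were interpolated linearly from a five-concentration, 48-hour dose response in 96-well plates. GI50 is the concentration that inhibits growth by half.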 The source made the active and inactive calls. No stated cut-off is given here; in the data, active = GI50 up to about 1.1 µM and inactive = higher.

What was measured:
Test in all cases: DTP human tumour cell line panel, 48 h
SNB-19 = tested on: SNB-19
EKVX = tested on: EKVX
NCI-H460 = tested on: NCI-H460
SR = tested on: SR
786-0 = tested on: 786-0
HOP-62 = tested on: HOP-62
LOX IMVI = tested on: LOX IMVI
SN12C = tested on: SN12C
NCI-H23 = tested on: NCI-H23
Hs-578T = tested on: Hs-578T
TK-10 = tested on: TK-10
HOP-92 = tested on: HOP-92
HL-60 = tested on: HL-60
T47D = tested on: T47D
CCRF-CEM = tested on: CCRF-CEM
HCC 2998 = tested on: HCC 2998
CAKI-1 = tested on: CAKI-1
DU-145 = tested on: DU-145
IGROV-1 = tested on: IGROV-1
A549 = tested on: A549
OVCAR-3 = tested on: OVCAR-3
COLO 205 = tested on: COLO 205
MDA-N = tested on: MDA-N
K562 = tested on: K562
HCT-15 = tested on: HCT-15
MDA-MB-435 = tested on: MDA-MB-435
KM12 = tested on: KM12
NCI-H522 = tested on: NCI-H522
SF-295 = tested on: SF-295
MCF7 = tested on: MCF7
SK-MEL-28 = tested on: SK-MEL-28
PC-3 = tested on: PC-3
SK-MEL-5 = tested on: SK-MEL-5
NCI-H226 = tested on: NCI-H226
MDA-MB-231 = tested on: MDA-MB-231
MOLT-4 = tested on: MOLT-4
Malme-3M = tested on: Malme-3M
SNB-75 = tested on: SNB-75
ACHN = tested on: ACHN
SF-539 = tested on: SF-539
RPMI-8226 = tested on: RPMI-8226
RXF 393 = tested on: RXF 393
UACC-257 = tested on: UACC-257
OVCAR-8 = tested on: OVCAR-8
HCT-116 = tested on: HCT-116
SW-620 = tested on: SW-620
M14 = tested on: M14
UACC-62 = tested on: UACC-62
NCI/ADR-RES = tested on: NCI/ADR-RES
A498 = tested on: A498
UO-31 = tested on: UO-31
SF-268 = tested on: SF-268
OVCAR-5 = tested on: OVCAR-5
OVCAR-4 = tested on: OVCAR-4
SK-MEL-2 = tested on: SK-MEL-2
U-251 = tested on: U-251
BT-549 = tested on: BT-549

S=C(NCc1ccccn1)N/N=C/c1ccccn1
GI50 (SNB-19): 726 nM (active) | GI50 (EKVX): < 19.4 nM (active) | GI50 (NCI-H460): 55.6 nM (active) | GI50 (SR): < 10 nM (active) | GI50 (786-0): < 10 nM (active) | GI50 (HOP-62): < 10 nM (active) | GI50 (LOX IMVI): < 16.7 nM (active) | GI50 (SN12C): 72.4 nM (active) | GI50 (NCI-H23): < 10 nM (active) | GI50 (Hs-578T): 1140 nM (inactive) | GI50 (TK-10): 19.5 nM (active) | GI50 (HOP-92): < 20.6 nM (active) | GI50 (HL-60): < 10 nM (active) | GI50 (T47D): < 10 nM (active) | GI50 (CCRF-CEM): < 10 nM (active) | GI50 (HCC 2998): 229 nM (active) | GI50 (CAKI-1): < 10 nM (active) | GI50 (DU-145): 268 nM (active) | GI50 (IGROV-1): < 10 nM (active) | GI50 (A549): < 18.8 nM (active) | GI50 (OVCAR-3): < 10 nM (active) | GI50 (COLO 205): < 10 nM (active) | GI50 (MDA-N): 454 nM (active) | GI50 (K562): < 10 nM (active) | GI50 (HCT-15): < 10 nM | GI50 (MDA-MB-435): 207 nM (active) | GI50 (KM12): < 10 nM (active) | GI50 (NCI-H522): < 10 nM (active) | GI50 (SF-295): 48.2 nM (active) | GI50 (MCF7): < 10 nM (active) | GI50 (SK-MEL-28): 518 nM (active) | GI50 (PC-3): < 10 nM (active) | GI50 (SK-MEL-5): 18.4 nM (active) | GI50 (NCI-H226): < 16.8 nM (active) | GI50 (MDA-MB-231): < 10 nM (active) | GI50 (MOLT-4): < 10 nM (active) | GI50 (Malme-3M): 614 nM (active) | GI50 (SNB-75): 3050 nM (inactive) | GI50 (ACHN): < 10 nM (active) | GI50 (SF-539): < 15.9 nM (active) | GI50 (RPMI-8226): < 10 nM (active) | GI50 (RXF 393): < 37.8 nM (active) | GI50 (UACC-257): < 10 nM (active) | GI50 (OVCAR-8): < 32 nM (active) | GI50 (HCT-116): < 10 nM (active) | GI50 (SW-620): < 10 nM (active) | GI50 (M14): < 10 nM (active) | GI50 (UACC-62): < 18.1 nM (active) | GI50 (NCI/ADR-RES): < 10 nM (active) | GI50 (A498): < 11.3 nM (active) | GI50 (UO-31): < 33.1 nM (active) | GI50 (SF-268): 21.4 nM (active) | GI50 (OVCAR-5): < 10 nM (active) | GI50 (OVCAR-4): < 37.1 nM (active) | GI50 (SK-MEL-2): 23.4 nM (active)

CCCCCCCCCCCCC/C=C/[C@H]1[C@@H](C(=O)OC)N1[S+]([O-])c1ccc(C)cc1 (some centres undefined)
GI50 (EKVX): 88300 nM (inactive) | GI50 (SR): 21300 nM (inactive) | GI50 (786-0): > 100000 nM (inactive) | GI50 (HOP-62): > 100000 nM (inactive) | GI50 (LOX IMVI): > 100000 nM (inactive) | GI50 (U-251): > 100000 nM (inactive) | GI50 (NCI-H23): > 100000 nM (inactive) | GI50 (TK-10): > 100000 nM (inactive) | GI50 (HOP-92): > 100000 nM (inactive) | GI50 (HL-60): 21200 nM (inactive) | GI50 (T47D): 22900 nM (inactive) | GI50 (CCRF-CEM): 52500 nM (inactive) | GI50 (DU-145): > 100000 nM (inactive) | GI50 (IGROV-1): > 100000 nM (inactive) | GI50 (OVCAR-3): > 100000 nM (inactive) | GI50 (COLO 205): > 100000 nM (inactive) | GI50 (K562): 31300 nM (inactive) | GI50 (MDA-MB-435): > 100000 nM (inactive) | GI50 (NCI-H522): 71400 nM (inactive) | GI50 (SK-MEL-28): > 100000 nM (inactive) | GI50 (PC-3): > 100000 nM (inactive) | GI50 (SK-MEL-5): 35800 nM (inactive) | GI50 (MOLT-4): 87500 nM (inactive) | GI50 (Malme-3M): > 100000 nM (inactive) | GI50 (ACHN): > 100000 nM (inactive) | GI50 (RPMI-8226): 12100 nM (inactive) | GI50 (UACC-257): 36300 nM (inactive) | GI50 (HCT-116): > 100000 nM (inactive) | GI50 (SW-620): > 100000 nM (inactive) | GI50 (UACC-62): > 100000 nM (inactive) | GI50 (A498): > 100000 nM (inactive) | GI50 (BT-549): > 100000 nM (inactive) | GI50 (UO-31): > 100000 nM (inactive) | GI50 (SK-MEL-2): > 100000 nM (inactive)
